“And” between values parts separate entries of the source, which are not always exact repeats. Equal entries are not always repeated.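 Test compounds were applied to cells in 96-well plates for 48 hours at 5 doses. GI50 = concentration required for 50% inhibition of growth. TGI denotes the concentration required for complete inhibition of growth.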
Test system: 786-0 renal
Assay: inhibition of tumour cell growth, NCI panel, 48 h

Compared with `CC(C)c1ccc(/C=C2/C=C(c3ccc4ccccc4c3)OC2=O)cc1`, `C=C1c2nc3ccccc3n2C=C(c2ccccc2)N1c1ccc([N+](=O)[O-])cc1` is lower in TGI: greater than 100 µM for the first, 4.13 µM for the second.

`COc1ccc(C(OCC2OC(n3cc(C)c(=O)[nH]c3=O)CC2n2cc(Cn3cc(I)c(=O)[nH]c3=O)nn2)(c2ccccc2)c2ccccc2)cc1` (configuration not stated) and `O=S1(=O)NC(=NCc2c[nH]c3ccccc23)N(c2ccccc2)c2ccncc21` cannot be ordered by TGI: greater than 100 µM for the first, greater than 100 µM for the second.

Going from `CC1=CC2C(O1)C1C(=O)C=CC(=O)C1=CC2[N+](=O)[O-]` (configuration not stated) to `Cc1cc(O)c2c(=O)c3ccccc3[nH]c2c1`, the TGI rises from 27.6 µM to greater than 100 µM.

`C=C(Br)C(C)(Cl)CCC(Br)C(C)(C)Cl` (configuration not stated) and `COc1c(C)c(C/C=C(\C)CCCCO[Si](c2ccccc2)(c2ccccc2)C(C)(C)C)c(OC)c(OC)c1OC` are within 1.5-fold of each other in TGI: 39.9 µM for the first, 40.5 µM for the second.

Going from `Cc1c2cnccc2c(C)c2c1c1ccccc1n2CCCN` to `CCOC(=O)Nn1c(C)nnc1-c1ccccc1`, the TGI rises from 0.564 µM to greater than 100 µM.

`O=C(CCC(=O)c1ccc(Cl)cc1)NO` and `Nc1cccc2cc(Cl)cnc12` cannot be ordered by TGI: greater than 100 µM for the first, greater than 100 µM for the second.

`CN1CCN([C@H]2C[C@H]3[C@@H]4CC=C5C[C@@H](O)CC[C@]5(C)[C@H]4CC[C@]3(C)C2=O)CC1` and `C[C@@]12C[C@@H](c3ccccc3O1)N1CCCCSC1=N2` cannot be ordered by TGI: greater than 100 µM for the first, greater than 100 µM for the second.

`N=c1n(C(=O)N2CCCC2)c2cc(Cl)ccc2n1C1=NCCN1` gave a TGI greater than 100 µM.

Test system: A498 renal
Assay: inhibition of tumour cell growth, NCI panel, 48 h

First: CC(C)c1ccc(/C=C2/C=C(c3ccc4ccccc4c3)OC2=O)cc1
Second: C=C1c2nc3ccccc3n2C=C(c2ccccc2)N1c1ccc([N+](=O)[O-])cc1
The TGI of the first is higher: greater than 100 µM for the first, 42 µM for the second.

`COc1ccc(C(OCC2OC(n3cc(C)c(=O)[nH]c3=O)CC2n2cc(Cn3cc(I)c(=O)[nH]c3=O)nn2)(c2ccccc2)c2ccccc2)cc1` (configuration not stated) and `O=S1(=O)NC(=NCc2c[nH]c3ccccc23)N(c2ccccc2)c2ccncc21` cannot be ordered by TGI: greater than 100 µM for the first, greater than 100 µM for the second.

First: CC1=CC2C(O1)C1C(=O)C=CC(=O)C1=CC2[N+](=O)[O-] (configuration not stated)
Second: Cc1cc(O)c2c(=O)c3ccccc3[nH]c2c1
The TGI of the first is 2-fold lower: 40.6 µM for the first, 82.6 µM for the second.

`C=C(Br)C(C)(Cl)CCC(Br)C(C)(C)Cl` (configuration not stated) and `COc1c(C)c(C/C=C(\C)CCCCO[Si](c2ccccc2)(c2ccccc2)C(C)(C)C)c(OC)c(OC)c1OC` cannot be ordered by TGI: greater than 100 µM for the first, greater than 100 µM for the second.

`O=C(CCC(=O)c1ccc(Cl)cc1)NO` and `Nc1cccc2cc(Cl)cnc12` cannot be ordered by TGI: greater than 100 µM for the first, greater than 100 µM for the second.

`CN1CCN([C@H]2C[C@H]3[C@@H]4CC=C5C[C@@H](O)CC[C@]5(C)[C@H]4CC[C@]3(C)C2=O)CC1` and `C[C@@]12C[C@@H](c3ccccc3O1)N1CCCCSC1=N2` cannot be ordered by TGI: greater than 100 µM for the first, greater than 100 µM for the second.

`CCOC(=O)Nn1c(C)nnc1-c1ccccc1` and `N=c1n(C(=O)N2CCCC2)c2cc(Cl)ccc2n1C1=NCCN1` cannot be ordered by TGI: greater than 100 µM for the first, greater than 100 µM for the second.

Work on `Cc1c2cnccc2c(C)c2c1c1ccccc1n2CCCN` yielded a GI50 of 0.468 µM.

For `Cc1c2cnccc2c(C)c2c1c1ccccc1n2CCCN`, the TGI was 1.62 µM and 1.15 µM.

Test system: CCRF-CEM leukemia
Assay: inhibition of tumour cell growth, NCI panel, 48 h

First: CC(C)c1ccc(/C=C2/C=C(c3ccc4ccccc4c3)OC2=O)cc1
Second: C=C1c2nc3ccccc3n2C=C(c2ccccc2)N1c1ccc([N+](=O)[O-])cc1
The TGI of the first is lower: 20 µM for the first, greater than 81.3 µM for the second.

`COc1ccc(C(OCC2OC(n3cc(C)c(=O)[nH]c3=O)CC2n2cc(Cn3cc(I)c(=O)[nH]c3=O)nn2)(c2ccccc2)c2ccccc2)cc1` (configuration not stated) and `O=S1(=O)NC(=NCc2c[nH]c3ccccc23)N(c2ccccc2)c2ccncc21` cannot be ordered by TGI: greater than 100 µM for the first, greater than 100 µM for the second.

`CC1=CC2C(O1)C1C(=O)C=CC(=O)C1=CC2[N+](=O)[O-]` (configuration not stated) and `Cc1cc(O)c2c(=O)c3ccccc3[nH]c2c1` cannot be ordered by TGI: greater than 23.7 µM for the first, greater than 100 µM for the second.

Compared with `C=C(Br)C(C)(Cl)CCC(Br)C(C)(C)Cl` (configuration not stated), `COc1c(C)c(C/C=C(\C)CCCCO[Si](c2ccccc2)(c2ccccc2)C(C)(C)C)c(OC)c(OC)c1OC` is higher in TGI: 44.5 µM for the first, greater than 46.4 µM for the second.

`O=C(CCC(=O)c1ccc(Cl)cc1)NO` and `Nc1cccc2cc(Cl)cnc12` cannot be ordered by TGI: greater than 100 µM for the first, greater than 100 µM for the second.

`CN1CCN([C@H]2C[C@H]3[C@@H]4CC=C5C[C@@H](O)CC[C@]5(C)[C@H]4CC[C@]3(C)C2=O)CC1` and `C[C@@]12C[C@@H](c3ccccc3O1)N1CCCCSC1=N2` cannot be ordered by TGI: greater than 100 µM for the first, greater than 100 µM for the second.

`CCOC(=O)Nn1c(C)nnc1-c1ccccc1` and `N=c1n(C(=O)N2CCCC2)c2cc(Cl)ccc2n1C1=NCCN1` cannot be ordered by TGI: greater than 100 µM for the first, greater than 100 µM for the second.

With `Cc1c2cnccc2c(C)c2c1c1ccccc1n2CCCN` the GI50 was 0.0966 µM and 0.0188 µM.

With `Cc1c2cnccc2c(C)c2c1c1ccccc1n2CCCN` the TGI was 0.75 µM and 0.215 µM.

Test system: HCC-2998 colon
Assay: inhibition of tumour cell growth, NCI panel, 48 h

`CC(C)c1ccc(/C=C2/C=C(c3ccc4ccccc4c3)OC2=O)cc1` and `C=C1c2nc3ccccc3n2C=C(c2ccccc2)N1c1ccc([N+](=O)[O-])cc1` cannot be ordered by TGI: greater than 100 µM for the first, greater than 23.2 µM for the second.

`COc1ccc(C(OCC2OC(n3cc(C)c(=O)[nH]c3=O)CC2n2cc(Cn3cc(I)c(=O)[nH]c3=O)nn2)(c2ccccc2)c2ccccc2)cc1` (configuration not stated) and `O=S1(=O)NC(=NCc2c[nH]c3ccccc23)N(c2ccccc2)c2ccncc21` cannot be ordered by TGI: greater than 100 µM for the first, greater than 100 µM for the second.

`CC1=CC2C(O1)C1C(=O)C=CC(=O)C1=CC2[N+](=O)[O-]` (configuration not stated) and `Cc1cc(O)c2c(=O)c3ccccc3[nH]c2c1` cannot be ordered by TGI: greater than 59.7 µM for the first, greater than 100 µM for the second.

`C=C(Br)C(C)(Cl)CCC(Br)C(C)(C)Cl` (configuration not stated) and `COc1c(C)c(C/C=C(\C)CCCCO[Si](c2ccccc2)(c2ccccc2)C(C)(C)C)c(OC)c(OC)c1OC` cannot be ordered by TGI: greater than 100 µM for the first, greater than 46.4 µM for the second.

`O=C(CCC(=O)c1ccc(Cl)cc1)NO` and `Nc1cccc2cc(Cl)cnc12` cannot be ordered by TGI: greater than 100 µM for the first, greater than 100 µM for the second.

`CN1CCN([C@H]2C[C@H]3[C@@H]4CC=C5C[C@@H](O)CC[C@]5(C)[C@H]4CC[C@]3(C)C2=O)CC1` and `C[C@@]12C[C@@H](c3ccccc3O1)N1CCCCSC1=N2` cannot be ordered by TGI: greater than 100 µM for the first, greater than 100 µM for the second.

`CCOC(=O)Nn1c(C)nnc1-c1ccccc1` and `N=c1n(C(=O)N2CCCC2)c2cc(Cl)ccc2n1C1=NCCN1` cannot be ordered by TGI: greater than 100 µM for the first, greater than 100 µM for the second.

`Cc1c2cnccc2c(C)c2c1c1ccccc1n2CCCN` gave a GI50 of 0.23 µM.

With `Cc1c2cnccc2c(C)c2c1c1ccccc1n2CCCN` the TGI was 1.83 µM and 0.432 µM.

Test system: HCT-116 colon
Assay: inhibition of tumour cell growth, NCI panel, 48 h

Going from `CC(C)c1ccc(/C=C2/C=C(c3ccc4ccccc4c3)OC2=O)cc1` to `C=C1c2nc3ccccc3n2C=C(c2ccccc2)N1c1ccc([N+](=O)[O-])cc1`, the TGI falls from greater than 100 µM to 35.2 µM.

`COc1ccc(C(OCC2OC(n3cc(C)c(=O)[nH]c3=O)CC2n2cc(Cn3cc(I)c(=O)[nH]c3=O)nn2)(c2ccccc2)c2ccccc2)cc1` (configuration not stated) and `O=S1(=O)NC(=NCc2c[nH]c3ccccc23)N(c2ccccc2)c2ccncc21` cannot be ordered by TGI: greater than 100 µM for the first, greater than 100 µM for the second.

First: CC1=CC2C(O1)C1C(=O)C=CC(=O)C1=CC2[N+](=O)[O-] (configuration not stated)
Second: Cc1cc(O)c2c(=O)c3ccccc3[nH]c2c1
The TGI of the first is 2.1-fold lower: 31.8 µM for the first, 65.2 µM for the second.

`C=C(Br)C(C)(Cl)CCC(Br)C(C)(C)Cl` (configuration not stated) and `COc1c(C)c(C/C=C(\C)CCCCO[Si](c2ccccc2)(c2ccccc2)C(C)(C)C)c(OC)c(OC)c1OC` cannot be ordered by TGI: greater than 100 µM for the first, greater than 46.4 µM for the second.

`O=C(CCC(=O)c1ccc(Cl)cc1)NO` and `Nc1cccc2cc(Cl)cnc12` cannot be ordered by TGI: greater than 100 µM for the first, greater than 100 µM for the second.

`CN1CCN([C@H]2C[C@H]3[C@@H]4CC=C5C[C@@H](O)CC[C@]5(C)[C@H]4CC[C@]3(C)C2=O)CC1` and `C[C@@]12C[C@@H](c3ccccc3O1)N1CCCCSC1=N2` cannot be ordered by TGI: greater than 100 µM for the first, greater than 100 µM for the second.

`CCOC(=O)Nn1c(C)nnc1-c1ccccc1` and `N=c1n(C(=O)N2CCCC2)c2cc(Cl)ccc2n1C1=NCCN1` cannot be ordered by TGI: greater than 100 µM for the first, greater than 100 µM for the second.

Compound `Cc1c2cnccc2c(C)c2c1c1ccccc1n2CCCN` has a GI50 of 0.121 µM.

For `Cc1c2cnccc2c(C)c2c1c1ccccc1n2CCCN`, the TGI was 0.609 µM and 0.628 µM.

Test system: KM12 colon
Assay: inhibition of tumour cell growth, NCI panel, 48 h

`CC(C)c1ccc(/C=C2/C=C(c3ccc4ccccc4c3)OC2=O)cc1` and `O=S1(=O)NC(=NCc2c[nH]c3ccccc23)N(c2ccccc2)c2ccncc21` cannot be ordered by TGI: greater than 100 µM for the first, greater than 100 µM for the second.

`COc1ccc(C(OCC2OC(n3cc(C)c(=O)[nH]c3=O)CC2n2cc(Cn3cc(I)c(=O)[nH]c3=O)nn2)(c2ccccc2)c2ccccc2)cc1` (configuration not stated) and `CC1=CC2C(O1)C1C(=O)C=CC(=O)C1=CC2[N+](=O)[O-]` (configuration not stated) cannot be ordered by TGI: greater than 100 µM for the first, greater than 55.9 µM for the second.

`C=C(Br)C(C)(Cl)CCC(Br)C(C)(C)Cl` (configuration not stated) and `O=C(CCC(=O)c1ccc(Cl)cc1)NO` cannot be ordered by TGI: greater than 100 µM for the first, greater than 100 µM for the second.

Work on `Cc1c2cnccc2c(C)c2c1c1ccccc1n2CCCN` yielded a GI50 of 0.0374 µM.

In the case of `Cc1c2cnccc2c(C)c2c1c1ccccc1n2CCCN`, the TGI is reported as 0.815 µM and 0.286 µM.
